In PMC8154124, “Design, Synthesis, Anticancer Evaluation, Enzymatic Assays, and a Molecular Modeling Study of Novel Pyrazole–Indole Hybrids” (ACS Omega, 2021):

What was measured:
[1] = test system: human colorectal carcinoma (HCT-116); test: MTT cytotoxicity assay, HCT-116; type: cell-based; details: 48 h, mean ± SD
Method: (§1) The cells of human liver carcinoma (HepG2), human breast adenocarcinoma (MCF-7), human colorectal carcinoma (HCT-116), and human lung carcinoma (A549) were purchased from the American Type Culture Collection (Rockville, MD). All cells were maintained in a Dulbecco’s modified Eagle’s medium (DMEM), which was supplemented with 10% of heat-inactivated fetal bovine serum (FBS) and 100 U/mL penicillin and streptomycin each. The cells were grown at 37 °C in a humidified atmosphere of 5% CO2.
(§2) The cytotoxicity activities on the human liver carcinoma (HepG2), human breast adenocarcinoma (MCF-7), human colorectal carcinoma (HCT-116), and human lung carcinoma (A549) cell lines were estimated employing the 3-(4,5-dimethyl-2-thiazolyl)-2,5-diphenyl-2H-tetrazolium bromide (MTT) assay, which was grounded on the reduction of the tetrazolium salt by mitochondrial dehydrogenases in viable cells.[51],[52] The cells were dispensed in a 96-well sterile microplate (3 × 10^4 cells/well), followed by their incubation at 37 °C with a series of different concentrations of 10 μL of each compound or doxorubicin (positive control, in DMSO) for 48 h in a serum-free medium prior to the MTT assay. Subsequently, the media were carefully removed, and 40 μL of MTT (2.5 mg/mL) was added to each well and then incubated for an additional 4 h. Purple formazan dye crystals were solubilized by the addition of 200 μL of DMSO. The absorbance was measured at 570 nm using a SpectraMax Paradigm Multi-Mode microplate reader. The relative cell viability was expressed as the mean percentage of viable cells relative to the untreated control cells. All experiments were conducted in triplicate and were repeated on three different days. All of the values were represented as mean ± standard deviation (SD). The IC50s were determined by the SPSS probit analysis software program (SPSS Inc., Chicago, IL).

[2] = test system: human breast adenocarcinoma (MCF-7); test: MTT cytotoxicity assay, MCF-7; type: cell-based; details: MCF7, 48 h, mean ± SD
Method: as §1, §2

[3] = test system: human liver carcinoma (HepG2); test: MTT cytotoxicity assay, HepG2; type: cell-based; details: 48 h, mean ± SD
Method: as §1, §2

[4] = test system: human lung carcinoma (A549); test: MTT cytotoxicity assay, A549; type: cell-based; details: 48 h, mean ± SD
Method: as §1, §2

HepG2 cancer cells [5] = test: Annexin V/PI apoptosis detection by flow cytometry; type: cell-based, human; details: negative control DMSO 1.49%
Method: The induction of apoptosis has been investigated using the annexin V/propidium iodide (PI) staining assay for both compounds 7a and 7b on HepG2.
(§3) Cell cycle analysis and apoptosis detection were carried out using flow cytometry.[62] Both HepG2 and MCF-7 cells were seeded at 8 × 10^4 and incubated at 37 °C and 5% CO2 overnight. After treatment with the tested compounds for 24 h, cell pellets were collected and centrifuged (300g, 5 min). For cell cycle analysis, the cell pellets were fixed with 70% ethanol on ice for 15 min and collected again. The collected pellets were incubated with propidium iodide (PI) staining solution (50 μg/mL PI, 0.1 mg/mL RNaseA, 0.05% Triton X-100) at room temperature for 1 h and analyzed using a Gallios flow cytometer (Beckman Coulter, Brea, CA). Apoptosis detection was performed using a FITC annexin V/PI commercial kit (Becton Dickenson, Franklin Lakes, NJ) following the manufacturer’s protocol. The samples were analyzed using fluorescence-activated cell sorting (FACS) with a Gallios flow cytometer (Beckman Coulter, Brea, CA) within 1 h after staining. Data were analyzed using Kaluza v1.2 (Beckman Coulter).

HepG2 cancer cells [6] = test: Cell cycle analysis by flow cytometry (PI staining); type: cell-based, human; details: for accumulation of cells at the Pre G1 phase, fold compared to the control / increase in S phase, fold compared to the reference control / reduction in the percentage of cells at the G2/M phase, fold: HepG2, 7a and 7b at 7.9 and 6.1 μM respectively, 24 h; for %preG / %DIP G2/M / %DIP G1 / %DIP S: HepG2, Figure 3; for %preG: negative control 1.49%; for %DIP G2/M: negative control 9.7%; for %DIP G1: negative control 43.72%; for %DIP S: negative control 46.58%
Method: To elucidate whether the cytotoxic activity is due to suppression of cell cycle progression, HepG2 cells were exposed to compounds 7a and 7b at concentrations of 7.9 and 6.1 μM, respectively, for 24 h and analyzed using flow cytometry. […] These compounds also provided a slight increase in S phases by 0.1- and 0.14-fold, respectively, compared to the reference control, as shown in Figure 3.
as §3

caspase-3 = test: Caspase-3 (active) ELISA in treated HepG2 cells; type: cell-based, human; details: for caspase-3 activation, fold higher than the negative control: HepG2, 7a and 7b at 7.9 and 6.1 μM respectively, 24 h; for caspase-3: HepG2 cells treated 24 h, cont. HepG2 67.3 ± 2.8
Method: It has been reported that caspases cascade through either intrinsic or extrinsic pathways that mediate the induction of apoptosis, which may lead to apoptotic cell death.[53]−[55] Caspase-3 is involved in cell shrinkage, chromatin condensation, and DNA fragmentation inside the cells, causing apoptosis induction.
Activities of caspase-3 were measured using the Invitrogen caspase-3 (Active) (human) ELISA kit, Catalog # KHO1091 (96 tests) (Invitrogen Corporation) according to the manufacturer’s instructions.

Bcl-2 = Bcl-2 ELISA in treated HepG2 cells; type: cell-based, human; details: for Bcl-2 level relative to control, fold: HepG2, versus control; for Bcl-2: HepG2 cells treated, cont. HepG2 6.222 ± 0.14
Method: Furthermore, it is well known that the antiapoptotic Bcl-2 protein plays a critical role in cancer resistance therapy.[56] Therefore, we have studied the effect of both compounds 7a and 7b on Bcl-2 protein expression levels. They provided a 0.5- and 0.4-fold decrease in the Bcl-2 concentration, respectively.
Activities of Bcl-2 were measured using the Invitrogen Zymed Bcl-2 ELISA Kit, Catalog # 99–0042 (96 tests) (Invitrogen Corporation) according to the manufacturer’s instructions.

Bax = Bax ELISA in treated HepG2 cells; type: cell-based, human; details: cont. HepG2 5.762 ± 1.18
Method: In addition, the pro-apoptotic protein (Bax) is a protein that accelerates apoptosis by binding to and antagonizing the death repressor activity of Bcl-2.[57] Following any apoptotic stimuli, Bax causes activation of caspase-3 and perpetuates the apoptotic cascade.[58] The Bax protein expression level is altered in various human malignancies.[59],[60] Therefore, the effect of both compounds 7a and 7b on the Bax expression level has been studied.
Activities of Bax were measured using the Human Bax ELISA kit (DRG Human Bax ELISA (EIA-4487) DRG International, Inc.) according to the manufacturer’s instructions.

CDK-2 enzyme = CDK-2 enzyme (Homo sapiens, UniProt P24941); test: In vitro CDK-2 enzyme inhibitory assessment (ELISA); type: biochemical
Method: Estimation of CDK-2 was performed using ELISA through an affinity tag labeled capture antibody and a reporter conjugated detector antibody, which immunocapture the sample analyte in solution. The addition of the standard and samples to the wells is carried out, followed by the addition of the antibody mix. After the incubation period is completed, the wells are washed, and the unrestrained substance is discarded. Then, TMB (3,3′,5,5′-tetramethylbenzidine) substrate is added, and prompted by horseradish peroxidase (HRP), blue coloration appeared. The reaction was stopped by the addition of a stop solution, completely changing the color from blue to yellow. Signals were created equivalently to the quantity of the bound analyte, and the intensity was recorded at a certain wavelength (450 nm) using a Robonik P2000 ELISA reader. The concentrations of the tested compounds were calculated from the plotted curve.

Compound	IC50 [1]	IC50 [2]	IC50 [3]	IC50 [4]	total necrosis and apoptosis (early and late) percentage (HepG2 cancer cells [5])	accumulation of cells at the Pre G1 phase, fold compared to the control (HepG2 cancer cells [6])	increase in S phase, fold compared to the reference control (HepG2 cancer cells [6])	reduction in the percentage of cells at the G2/M phase, fold (HepG2 cancer cells [6])	%preG (HepG2 cancer cells [6])	%DIP G2/M (HepG2 cancer cells [6])	%DIP G1 (HepG2 cancer cells [6])	%DIP S (HepG2 cancer cells [6])	caspase-3 activation, fold higher than the negative control (caspase-3)	caspase-3 (caspase-3)	Bcl-2 level relative to control, fold (Bcl-2)	Bcl-2 (Bcl-2)	Bax (Bax)	IC50 (CDK-2 enzyme)
Cc1ccc(NC(=O)c2c(Nc3ccccc3)n[nH]c2N=Cc2c[nH]c3ccccc23)cc1 [7b, 5-((1H-Indol-3-yl)methyleneamino)-3-(phenylamino)-N-(4-methylphenyl)-1H-pyrazole-4-carboxamide]	19.6 ± 3.5 µM	14.5 ± 2.5 µM	7.9 ± 1.9 µM	14.1 ± 2.1 µM	27.51%	18.5 fold	0.14 fold	29.4 fold	27.51%	0.33%	46.39%	53.28%	5.8 fold	469.8 ± 10 pg/mL	0.4 fold	2.479 ± 0.07 ng/mL	272.6 ± 11.5 pg/mL	0.095 ± 0.1 µM
O=C(Nc1ccccc1)c1c(Nc2ccccc2)n[nH]c1N=Cc1c[nH]c2ccccc12 [7a, 5-((1H-Indol-3-yl)methyleneamino)-N-phenyl-3-(phenylamino)-1H-pyrazole-4-carboxamide]	17.4 ± 3.2 µM	10.6 ± 2.3 µM	6.1 ± 1.9 µM	23.7 ± 3.1 µM	22.18%	14.9 fold	0.1 fold	2.4 fold	22.18%	4.11%	44.61%	51.28%	7 fold	388.7 ± 7 pg/mL	0.5 fold	3.123 ± 0.1 ng/mL	211.3 ± 5.9 pg/mL	0.074 ± 0.15 µM
